Measured values as given in patent US10590078B2, “Sodium channel blockers” (Daewoong Pharmaceutical Co., Ltd., priority 2015, dated 2020).
Like-named read-outs stand apart in the source and are kept apart here.

Biological target: human sodium ion channel 1.7 (hNav1.7) (Homo sapiens, UniProt Q15858)
Assay: Blocking effect against sodium ion channel Nav1.7, IonFlux16 auto patch clamp in hNav1.7 HEK293 cells
Format: cell-based
[1] = hNav1.7 HEK293 cells, inhibition of peak current after 50 seconds treatment, eight concentrations, read-out: IC50

Chain of human sodium ion channel 1.7 (hNav1.7) (Q15858 whole entry): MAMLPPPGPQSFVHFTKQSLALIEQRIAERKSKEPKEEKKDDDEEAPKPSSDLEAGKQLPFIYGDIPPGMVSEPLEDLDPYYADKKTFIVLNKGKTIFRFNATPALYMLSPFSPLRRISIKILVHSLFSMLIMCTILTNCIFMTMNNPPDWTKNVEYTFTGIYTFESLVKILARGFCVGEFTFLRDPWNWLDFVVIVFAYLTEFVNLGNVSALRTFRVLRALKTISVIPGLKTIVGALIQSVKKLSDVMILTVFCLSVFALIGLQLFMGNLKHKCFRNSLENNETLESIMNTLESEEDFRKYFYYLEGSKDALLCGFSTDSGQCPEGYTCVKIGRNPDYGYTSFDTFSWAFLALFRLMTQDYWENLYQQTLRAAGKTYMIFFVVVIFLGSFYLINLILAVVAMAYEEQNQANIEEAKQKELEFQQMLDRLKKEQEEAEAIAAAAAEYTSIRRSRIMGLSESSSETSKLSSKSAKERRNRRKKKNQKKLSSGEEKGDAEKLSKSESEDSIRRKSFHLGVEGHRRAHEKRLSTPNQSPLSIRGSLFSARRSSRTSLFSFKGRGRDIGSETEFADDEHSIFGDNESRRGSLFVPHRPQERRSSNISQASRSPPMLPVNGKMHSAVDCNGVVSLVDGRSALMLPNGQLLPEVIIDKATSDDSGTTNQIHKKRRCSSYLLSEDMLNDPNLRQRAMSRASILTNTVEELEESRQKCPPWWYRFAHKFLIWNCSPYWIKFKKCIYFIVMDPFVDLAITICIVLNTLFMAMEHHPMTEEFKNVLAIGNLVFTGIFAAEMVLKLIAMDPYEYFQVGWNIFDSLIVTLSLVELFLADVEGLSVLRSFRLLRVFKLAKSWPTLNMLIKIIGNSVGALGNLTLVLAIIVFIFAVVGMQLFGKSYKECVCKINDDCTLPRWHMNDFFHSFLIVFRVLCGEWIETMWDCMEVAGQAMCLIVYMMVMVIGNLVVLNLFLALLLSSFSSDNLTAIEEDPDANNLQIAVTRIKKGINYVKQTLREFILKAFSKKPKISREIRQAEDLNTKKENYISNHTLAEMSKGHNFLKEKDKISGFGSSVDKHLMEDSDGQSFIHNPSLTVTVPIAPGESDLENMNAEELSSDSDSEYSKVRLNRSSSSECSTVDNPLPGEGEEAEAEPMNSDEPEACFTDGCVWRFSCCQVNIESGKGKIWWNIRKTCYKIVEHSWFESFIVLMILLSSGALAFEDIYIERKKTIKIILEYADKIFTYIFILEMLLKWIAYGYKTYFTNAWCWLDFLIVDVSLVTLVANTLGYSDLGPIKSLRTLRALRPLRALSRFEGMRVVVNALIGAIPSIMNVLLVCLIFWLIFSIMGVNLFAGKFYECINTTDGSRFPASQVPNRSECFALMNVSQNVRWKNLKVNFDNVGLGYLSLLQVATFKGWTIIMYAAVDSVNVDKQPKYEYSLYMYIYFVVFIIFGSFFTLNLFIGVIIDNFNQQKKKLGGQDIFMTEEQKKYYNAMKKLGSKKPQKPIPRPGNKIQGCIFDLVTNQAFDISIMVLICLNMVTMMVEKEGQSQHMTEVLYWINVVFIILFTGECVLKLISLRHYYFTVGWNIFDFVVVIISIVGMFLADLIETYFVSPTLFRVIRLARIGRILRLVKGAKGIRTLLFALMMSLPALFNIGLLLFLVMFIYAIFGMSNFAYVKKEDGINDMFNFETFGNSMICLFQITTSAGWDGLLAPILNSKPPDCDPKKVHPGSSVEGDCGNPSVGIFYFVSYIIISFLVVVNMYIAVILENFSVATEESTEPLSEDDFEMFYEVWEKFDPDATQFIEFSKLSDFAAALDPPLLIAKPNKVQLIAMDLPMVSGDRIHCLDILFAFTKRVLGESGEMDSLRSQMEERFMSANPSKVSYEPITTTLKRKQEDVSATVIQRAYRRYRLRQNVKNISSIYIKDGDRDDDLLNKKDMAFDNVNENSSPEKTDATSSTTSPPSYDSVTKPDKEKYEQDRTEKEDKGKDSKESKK

Row | SMILES | IC50 [1] [nM] | IC50 [nM]
1 | CS(=O)(=O)NC(=O)c1ccc(-n2nc(-c3ccc(Cl)cc3F)c3cc(Cl)ccc32)c(C#N)c1 [Example 100, 4-(5-chloro-3-(4-chloro-2-fluorophenyl)-1H-indazol-1-yl)-3-cyano-N-(methylsulfonyl)benzamide] | 279 | 
2 | CS(=O)(=O)NC(=O)c1ccc(-n2nc(Cl)c3cc(Cl)ccc32)c(Cl)c1 [Example 8, 3-chloro-4-(3,5-dichloro-1H-indazol-1-yl)-N-(methylsulfonyl)benzamide] | 880 | 
3 | Cc1ccc(-c2nn(-c3cc(F)c(C(=O)NS(C)(=O)=O)cc3Cl)c3ccc(F)cc23)cc1 [Example 156, 5-chloro-2-fluoro-4-(5-fluoro-3-(p-tolyl)-1H-indazol-1-yl)-N-(methylsulfonyl)benzamide] | 100 | 
4 | CS(=O)(=O)NC(=O)c1cc(Cl)c(-n2nc(-c3ccccc3F)c3cc(Cl)ccc32)cc1F [Example 53, 5-chloro-4-(5-chloro-3-(2-fluorophenyl)-1H-indazol-1-yl)-2-fluoro-N-(methylsulfonyl)benzamide] | 33 | 
5 | CS(=O)(=O)NC(=O)c1cc(F)c(-n2nc(-c3cccc(C#N)c3)c3cc(Cl)ccc32)cc1Cl [Example 109, 2-chloro-4-(5-chloro-3-(3-cyanophenyl)-1H-indazol-1-yl)-5-fluoro-N-(methylsulfonyl)benzamide] | 450 | 
6 | CS(=O)(=O)NC(=O)c1cc(Cl)c(-n2ncc3cc(Cl)ncc32)cc1F [Example 10, 5-chloro-4-(5-chloro-1H-pyrazolo[3,4-c]pyridin-1-yl)-2-fluoro-N-(methylsulfonyl)benzamide] | > 10000 | 
7 | CS(=O)(=O)NC(=O)c1cc(Cl)c(-n2nc(Cl)c3cc(Br)ccc32)cc1F [Example 21, 4-(5-bromo-3-chloro-1H-indazol-1-yl)-5-chloro-2-fluoro-N-(methylsulfonyl)benzamide] | 175 | 
8 | CS(=O)(=O)NC(=O)c1cc(Cl)c(-n2cc(-c3ccccc3F)c3cc(Cl)cnc32)cc1F [Example 191, 5-chloro-4-(5-chloro-3-(2-fluorophenyl)-1H-pyrrolo[2,3-b]pyridin-1-yl)-2-fluoro-N-(methylsulfonyl)benzamide] | 110 | 
9 | Cn1nccc1-c1nn(-c2cc(F)c(C(=O)NS(C)(=O)=O)cc2Cl)c2ccc(Cl)cc12 [Example 87, 5-chloro-4-(5-chloro-3-(1-methyl-1H-pyrazol-5-yl)-1H-indazol-1-yl)-2-fluoro-N-(methylsulfonyl)benzamide] | > 3000 | 
10 | CS(=O)(=O)NC(=O)c1cc(Cl)c(-n2ncc3cc(N)ccc32)cc1F [Example 13, 4-(5-amino-1H-indazol-1-yl)-5-chloro-2-fluoro-N-(methylsulfonyl)benzamide] | > 10000 | 
11 | CS(=O)(=O)NC(=O)c1cc(Cl)c(-n2cc(-c3ccc(Cl)cc3)c3cc(F)cnc32)cc1F [Example 204, 5-chloro-4-(3-(4-chlorophenyl)-5-fluoro-1H-pyrrolo[2,3-b]pyridin-1-yl)-2-fluoro-N-(methylsulfonyl)benzamide] | 100 | 
12 | CS(=O)(=O)NC(=O)c1cc(Cl)c(-n2nc(Cl)c3cc(OCCc4ccccc4)ccc32)cc1F [Example 40, 5-chloro-4-(3-chloro-5-phenethoxy-1H-indazol-1-yl)-2-fluoro-N-(methylsulfonyl)benzamide] | 190 | 
13 | CS(=O)(=O)NC(=O)c1ccc(-n2nc(-c3cccnc3)c3cc(F)ccc32)c(C#N)c1 [Example 167, 3-cyano-4-(5-fluoro-3-(pyridin-3-yl)-1H-indazol-1-yl)-N-(methylsulfonyl)benzamide] | > 10000 | 
14 | CN(C(=O)c1cc(Cl)c(-n2nc(-c3ccc(Cl)cc3F)c3cc(Cl)ccc32)cc1F)S(C)(=O)=O [Example 139, 5-chloro-4-(5-chloro-3-(4-chloro-2-fluorophenyl)-1H-indazol-1-yl)-2-fluoro-N-methyl-N-(methylsulfonyl)benzamide] | 1430 | 
15 | CC(C)COc1ccc2c(cnn2-c2cc(F)c(C(=O)NS(C)(=O)=O)cc2Cl)c1 [Example 41, 5-chloro-2-fluoro-4-(5-isobutoxy-1H-indazol-1-yl)-N-(methylsulfonyl)benzamide] | 6340 | 
16 | CS(=O)(=O)NC(=O)c1cc(F)c(-n2nc(-c3ccc(C(F)(F)F)cc3)c3cc(Cl)ccc32)cc1Cl [Example 111, 2-chloro-4-(5-chloro-3-(4-(trifluoromethyl)phenyl)-1H-indazol-1-yl)-5-fluoro-N-(methylsulfonyl)benzamide] | 552 | 
17 | CS(=O)(=O)NC(=O)c1ccc(-n2nc(-c3cccc(C#N)c3)c3cc(F)ccc32)c(C#N)c1 [Example 168, 3-cyano-4-(3-(3-cyanophenyl)-5-fluoro-1H-indazol-1-yl)-N-(methylsulfonyl)benzamide] | > 10000 | 
18 | CS(=O)(=O)NC(=O)c1cc(Cl)c(-n2nc(-c3ccccc3C(F)(F)F)c3cc(Cl)ccc32)cc1F [Example 63, 5-chloro-4-(5-chloro-3-(2-(trifluoromethyl)phenyl)-1H-indazol-1-yl)-2-fluoro-N-(methylsulfonyl)benzamide] | 41 | 
19 | CS(=O)(=O)N(Cc1ccc(F)cc1)C(=O)c1cc(Cl)c(-n2nc(Cl)c3cc(O)ccc32)cc1F [Example 141, 5-chloro-4-(3-chloro-5-hydroxy-1H-indazol-1-yl)-2-fluoro-N-(4-fluorobenzyl)-N-(methylsulfonyl)benzamide] | > 10000 | 
20 | COc1ccccc1-c1nn(-c2ccc(C(=O)NS(C)(=O)=O)cc2F)c2ccc(Cl)cc12 [Example 117, 4-(5-chloro-3-(2-methoxyphenyl)-1H-indazol-1-yl)-3-fluoro-N-(methylsulfonyl)benzamide] | 640 | 
21 | CS(=O)(=O)NC(=O)c1cc(Cl)c(-n2nc(N3CCOCC3)c3cc(Cl)ccc32)cc1F [Example 86, 5-chloro-4-(5-chloro-3-morpholino-1H-indazol-1-yl)-2-fluoro-N-(methylsulfonyl)benzamide] | > 10000 | 
22 | CS(=O)(=O)NC(=O)c1ccc(-n2nc(Cl)c3cc(Cl)ccc32)cc1F [Example 4, 4-(3,5-dichloro-1H-indazol-1-yl)-2-fluoro-N-(methylsulfonyl)benzamide] | > 10000 | 
23 | COc1ccccc1-c1nn(-c2cc(F)c(C(=O)NS(C)(=O)=O)cc2Cl)c2ccc(Cl)cc12 [Example 58, 5-chloro-4-(5-chloro-3-(2-methoxyphenyl)-1H-indazol-1-yl)-2-fluoro-N-(methylsulfonyl)benzamide] | 98 | 
24 | CS(=O)(=O)NC(=O)c1cc(Cl)c(-n2cc(-c3ccc(C(F)(F)F)cc3)c3cc(Cl)cnc32)cc1F [Example 188, 5-chloro-4-(5-chloro-3-(4-(trifluoromethyl)phenyl)-1H-pyrrolo[2,3-b]pyridin-1-yl)-2-fluoro-N-(methylsulfonyl)benzamide] |  | 50

Next, values leading:

Row | IC50 [1] [nM] | IC50 [nM] | SMILES
25 | 400 |  | CS(=O)(=O)NC(=O)c1cc(Cl)c(-n2cc(-c3ccc(F)cc3)c3cccnc32)cc1F [Example 226, 5-chloro-2-fluoro-4-(3-(4-fluorophenyl)-1H-pyrrolo[2,3-b]pyridin-1-yl)-N-(methylsulfonyl)benzamide]
26 | 540 |  | CS(=O)(=O)NC(=O)c1cc(Cl)c(-n2cc(-c3cc(F)cc(Cl)c3)c3cccnc32)cc1F [Example 220, 5-chloro-4-(3-(3-chloro-5-fluorophenyl)-1H-pyrrolo[2,3-b]pyridin-1-yl)-2-fluoro-N-(methylsulfonyl)benzamide]
27 | 370 |  | CS(=O)(=O)NC(=O)c1cc(Cl)c(-n2cc(-c3ccccc3C(F)(F)F)c3cccnc32)cc1F [Example 216, 5-chloro-2-fluoro-N-(methylsulfonyl)-4-(3-(2-(trifluoromethyl)phenyl)-1H-pyrrolo[2,3-b]pyridin-1-yl)benzamide]
28 | 68 |  | Cc1cccc(-c2ccc3c(c2)c(Cl)nn3-c2cc(F)c(C(=O)NS(C)(=O)=O)cc2Cl)c1 [Example 233, 5-chloro-4-(3-chloro-5-(m-tolyl)-1H-indazol-1-yl)-2-fluoro-N-(methylsulfonyl)benzamide]
29 | 341 |  | CS(=O)(=O)NC(=O)c1cc(Cl)c(-n2nc(Cl)c3cc(-c4cc(C#N)ccc4F)ccc32)cc1F [Example 238, 5-chloro-4-(3-chloro-5-(5-cyano-2-fluorophenyl)-1H-indazol-1-yl)-2-fluoro-N-(methylsulfonyl)benzamide]
30 | > 10000 |  | CC(=O)NC(=O)c1cc(Cl)c(-n2nc(-c3ccc(Cl)cc3F)c3cc(Cl)ccc32)cc1F [Example 293, N-acetyl-5-chloro-4-(5-chloro-3-(4-chloro-2-fluorophenyl)-1H-indazol-1-yl)-2-fluorobenzamide]
31 | 340 |  | CS(=O)(=O)NC(=O)c1cc(Cl)c(-n2cc(-c3cccc(F)c3)c3cccnc32)cc1F [Example 214, 5-chloro-2-fluoro-4-(3-(3-fluorophenyl)-1H-pyrrolo[2,3-b]pyridin-1-yl)-N-(methylsulfonyl)benzamide]
32 | 752 |  | CS(=O)(=O)NC(=O)c1cc(Cl)c(-n2nc(Cl)c3cc(-c4ccc(C#N)cc4)ccc32)cc1F [Example 240, 5-chloro-4-(3-chloro-5-(4-cyanophenyl)-1H-indazol-1-yl)-2-fluoro-N-(methylsulfonyl)benzamide]
33 | 720 |  | CS(=O)(=O)NC(=O)c1cc(Cl)c(-n2cc(-c3ccccc3F)c3cccnc32)cc1F [Example 213, 5-chloro-2-fluoro-4-(3-(2-fluorophenyl)-1H-pyrrolo[2,3-b]pyridin-1-yl)-N-(methylsulfonyl)benzamide]
34 | 210 |  | CS(=O)(=O)NC(=O)c1cc(Cl)c(-n2cc(-c3ccc(F)cc3)c3cc(F)cnc32)cc1F [Example 206, 5-chloro-2-fluoro-4-(5-fluoro-3-(4-fluorophenyl)-1H-pyrrolo[2,3-b]pyridin-1-yl)-N-(methylsulfonyl)benzamide]
35 | > 10000 |  | Cn1nccc1-c1ccc2c(cnn2-c2cc(F)c(S(=O)(=O)Nc3cscn3)cc2Cl)c1 [Example 285, 5-chloro-2-fluoro-4-(5-(1-methyl-1H-pyrazol-5-yl)-1H-indazol-1-yl)-N-(thiazol-4-yl)benzenesulfonamide]
36 | > 10000 |  | N#Cc1cc(Cl)c(-n2nc(-c3ccc(Cl)cc3F)c3cc(Cl)ccc32)cc1F [Example 288, 5-chloro-4-(5-chloro-3-(4-chloro-2-fluorophenyl)-1H-indazol-1-yl)-2-fluorobenzonitrile]
